Results reported in patent US20260176276A1, “COMPOUND FOR REGULATING AND CONTROLLING ACTIVITY OF 15-PGDH AND PREPARATION METHOD THEREFOR” (SCINNOHUB PHARMACEUTICAL CO., LTD, priority 2022, published 2026).

molecular target: T1, 15-PGDH (Homo sapiens, UniProt P15428); experiment: Detection of activity of 15-PGDH kinase (enzyme inhibition, fluorescence slope); type: biochemical; conditions: inhibitory activity against 15-PGDH enzyme; substrates PGF2α and β-NAD; fluorescence Ex/Em=340/450
T1 construct: purchased Sino Biological Inc. 11205-H08E
T1 sequence (P15428 1-266): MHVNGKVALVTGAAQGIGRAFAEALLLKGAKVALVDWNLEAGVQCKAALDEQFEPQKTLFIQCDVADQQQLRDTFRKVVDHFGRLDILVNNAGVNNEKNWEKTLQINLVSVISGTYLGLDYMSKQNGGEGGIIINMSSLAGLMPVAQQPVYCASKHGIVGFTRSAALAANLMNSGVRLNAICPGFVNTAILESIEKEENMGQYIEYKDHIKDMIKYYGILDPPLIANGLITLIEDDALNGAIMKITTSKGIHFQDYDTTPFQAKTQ
Procedure: [table] • a. A solution of pH 7.5 containing 50 mM Tris-HCl, 0.01% Tween 20 was prepared with ultrapure water as a reaction buffer; • b. A 10 mM mother liquor of the compound to be tested was prepared with DMSO, and then the reaction buffer was used to dilute the mother liquor of the compound to be tested to obtain solution 1 of the compound to be tested at a concentration of 4000 nM, and then the solution 1 of the compound to be tested was serially diluted into solutions 2-10 of the compound to be tested at 9 concentrations with a gradient difference of three-fold. 5 μL of each of solutions 1-10 of the compound to be tested was taken and added into a 384-well plate as test wells; • c. 5 μL of the reaction buffer was added to the 384-well plate as positive control and blank control wells; • d. The reaction buffer was used to prepare a 15-PGDH protein solution at a concentration of 5 ng/μL, 5 μL of the 15-PGDH protein solution was taken and added to the test wells and positive control wells, and 5 μL of the reaction buffer was added to the blank control wells at the same time, then the plate was centrifuged at 2000 rpm for 30 seconds; • e. The reaction buffer was used to prepare 5 mM R-NAD and 2 mM PGF2α, respectively, which were mixed at 1:1 by volume to obtain a substrate mixture, 10 μL of the substrate mixture was taken and added to the test wells, positive control wells and blank control wells to start the reaction; • f. The fluorescence signal value (Ex/Em=340/450) of each well was detected continuously by using a multifunctional microplate reader. • a) Continuous fluorescence signal values were analyzed by using the “kinetic calculations-slope calculation method” in the PHERAstar Data analysis software to obtain the slope of each test well; • b) The inhibition rate % was calculated by using the following formula: [formula] • c) Calculation of IC50 and plotting of inhibition rate-dose curves: IC50 values were calculated by fitting compound concentrations and corresponding inhibition rates with nonlinear regression (dose response-variable slope) via using GraphPad Prism 6.0. The formula is shown below: [formula] wherein X is a log value of a concentration of the compound, and Y is inhibition rate %.

SMILES	IC50
CCCC[S+]([O-])c1sc2nc(-c3ccccc3)n3ccnc3c2c1N (stereo not drawn) [Example 1, 8-(butylsulfinyl)-5-phenylimidazo[1,2-c]thieno[3,2-e]pyrimidin-9-amine]	4 to 10 nM
CCCC[S+]([O-])c1sc2nc(-c3ccccc3)n3c(C)nnc3c2c1N (stereo not drawn) [Example 4, 8-(butylsulfinyl)-3-methyl-5-phenylthieno[3,2-e][1,2,4]triazolo[4,3-c]pyrimidin-9-amine]	4 to 10 nM
CCCC[S+]([O-])c1sc2nc(-c3ccccc3)n3cc(C)nc3c2c1N (stereo not drawn) [Example 5]	< 1.5 nM
CCCC[S+]([O-])c1sc2nc(-c3ccccc3)n3cc(C(F)(F)F)nc3c2c1N (stereo not drawn) [Example 6]	4 to 10 nM
Nc1c([S+]([O-])C2CCCC2)sc2nc(-c3ccccc3)n3ccnc3c12 (stereo not drawn) [Example 7]	4 to 10 nM
Nc1c([S+]([O-])C2CCCCC2)sc2nc(-c3ccccc3)n3ccnc3c12 (stereo not drawn) [Example 8]	4 to 10 nM
Nc1c([S+]([O-])C2COC2)sc2nc(-c3ccccc3)n3ccnc3c12 (stereo not drawn) [Example 9]	10 to 15 nM
CCCC[S+]([O-])c1sc2nc(-c3cnccn3)n3ccnc3c2c1N (stereo not drawn) [Example 10]	4 to 10 nM
CCCC[S+]([O-])c1sc2nc(-c3nccs3)n3ccnc3c2c1N (stereo not drawn) [Example 11]	1.5 to 4 nM
CCCC[S+]([O-])c1sc2nc(-c3ncccn3)n3ccnc3c2c1N (stereo not drawn) [Example 12]	1.5 to 4 nM
CCCC[S+]([O-])c1sc2nc(-c3cccnc3)n3ccnc3c2c1N (stereo not drawn) [Example 13]	< 1.5 nM
CCCC[S+]([O-])c1sc2nc(-c3ccsc3)n3ccnc3c2c1N (stereo not drawn) [Example 14]	1.5 to 4 nM
CCCC[S+]([O-])c1sc2nc(-c3cnn(C)c3)n3ccnc3c2c1N (stereo not drawn) [Example 15]	1.5 to 4 nM
CCCC[S+]([O-])c1sc2nc(-c3ccncc3)n3ccnc3c2c1N (stereo not drawn) [Example 16]	1.5 to 4 nM
CCCC[S+]([O-])c1sc2nc(-c3ccc(N4CCOCC4)nc3)n3ccnc3c2c1N (stereo not drawn) [Example 17]	4 to 10 nM
CCCC[S+]([O-])c1sc2nc(-c3ccccc3)n3cnnc3c2c1N (stereo not drawn) [Example 18]	10 to 15 nM
CCCC[S+]([O-])c1sc2nc(-c3ccccc3)n3c(C)cnc3c2c1N (stereo not drawn) [Example 19]	1.5 to 4 nM
CCCC[S+]([O-])c1sc2nc(-c3ccccc3)n3ccnc3c2c1C (stereo not drawn) [Example 20]	15 to 30 nM
CCCC[S+]([O-])c1sc2nc(-c3ccc4c(c3)CN(C)C4=O)n3ccnc3c2c1N (stereo not drawn) [Example 21]	1.5 to 4 nM
CCCC[S+]([O-])c1sc2nc(-c3ccc(C(=O)O)cc3)n3ccnc3c2c1N (stereo not drawn) [Example 22]	1.5 to 4 nM
Nc1c([S+]([O-])Cc2ccccc2)sc2nc(-c3ccccc3)n3ccnc3c12 (stereo not drawn) [Example 23]	10 to 15 nM
CCC(C)C[S+]([O-])c1sc2nc(-c3ccccc3)n3ccnc3c2c1N (stereo not drawn) [Example 24]	4 to 10 nM
CC(C)C[S+]([O-])c1sc2nc(-c3ccccc3)n3ccnc3c2c1N (stereo not drawn) [Example 25]	> 30 nM
CC(C)(C)[S+]([O-])c1sc2nc(-c3ccccc3)n3ccnc3c2c1N (stereo not drawn) [Example 26]	10 to 15 nM
